From patent US10627412B2, “Periodontal-disease-specific peptide, and treatment and diagnosis of periodontal disease using same” (KAGOSHIMA UNIVERSITY, priority 2010, dated 2020)

B1: Full-length human Keratin 6: full-length human Keratin 6 protein, parental protein of peptide 1 (protein, UniProt P02538 1-564, looked up)
chain: MASTSTTIRSHSSSRRGFSANSARLPGVSRSGFSSVSVSRSRGSGGLGGACGGAGFGSRSLYGLGGSKRISIGGGSCAISGGYGSRAGGSYGFGGAGSGFGFGGGAGIGFGLGGGAGLAGGFGGPGFPVCPPGGIQEVTVNQSLLTPLNLQIDPTIQRVRAEEREQIKTLNNKFASFIDKVRFLEQQNKVLETKWTLLQEQGTKTVRQNLEPLFEQYINNLRRQLDSIVGERGRLDSELRGMQDLVEDFKNKYEDEINKRTAAENEFVTLKKDVDAAYMNKVELQAKADTLTDEINFLRALYDAELSQMQTHISDTSVVLSMDNNRNLDLDSIIAEVKAQYEEIAQRSRAEAESWYQTKYEELQVTAGRHGDDLRNTKQEIAEINRMIQRLRSEIDHVKKQCANLQAAIADAEQRGEMALKDAKNKLEGLEDALQKAKQDLARLLKEYQELMNVKLALDVEIATYRKLLEGEECRLNGEGVGQVNISVVQSTVSSGYGGASGVGSGLGLGGGSSYSYGSGLGVGGGFSSSSGRAIGGGLSSVGGGSSTIKYTTTSSSSRKSYKH
modifications: full-length

What was measured:
[1] = system: lymphocytes obtained from these rats; experiment: Lymphoblast formation in cultured lymphocytes of injected rats; format: cell-based, rat
Protocol: (§1) PBS, full-length human Keratin 6 (FLK6) or peptide 1 (K6F) was administered by intragingival injection to the lower left jaw of rats. […] The lymphocytes obtained from these rats were stimulated with FLK6 or K6F and cultured. […] In addition, peripheral blood mononuclear leukocytes were obtained from these rats, stimulated with K6F or scramble peptide (Sc), and expression of RANKL and CD3 were examined by FACS analysis. […] Moreover, alveolar bone destruction in these rats was examined.

[2] = system: p38 MAPK, IκB-α, p65 NFκB in gingiva fibroblast (GF); experiment: p38 MAPK, IκB-α and p65 NFκB signalling in stimulated gingiva fibroblast; format: cell-based; conditions: stimulation 15 min-2 hr
Protocol: Gingiva fibroblasts were stimulated with peptide 1 (K6F), recombinant Keratin 6 (RK6, Rec-K6) or scramble peptide (Sc) for 2-24 hr, and the expression levels of MMP-2, MMP-3, MCP-1, IL-6, IL-8 were measured by Western blot analysis. […] Then, gingiva fibroblast (GF) and gingival epithelial cell (GEC) were stimulated with peptide 1 (K6F) or scramble peptide (Sc), respectively, for 15 min-2 hr, and phosphorylation of p38 in GF, […] serine/threonine kinase in GEC were examined.

[3] = system: Peripheral blood monocytes derived from severe periodontitis patients; experiment: Immunostaining of peripheral blood monocytes with anti-RANKL and anti-CD3 antibody; format: cell-based, human; conditions: stimulation of cells from severe periodontitis patients
Description: Peripheral blood monocytes derived from severe periodontitis patients were stimulated with full-length human Keratin 6 (FL) or peptide 1 (K6F), and immunostained with anti-RANKL antibody and anti-CD3 antibody.

[4] = system: RANKL mRNA in lymphocytes; experiment: RT-PCR of RANKL mRNA in lymphocytes of periodontitis patients; format: cell-based, human; conditions: stimulation of lymphocytes of periodontitis patients
[5] = system: ERK and Akt in gingival epithelial cell (GEC); experiment: Activation of serine/threonine kinases in stimulated gingival epithelial cell; format: cell-based; conditions: stimulation 15 min-2 hr
Protocol: (§2) Gingiva fibroblasts were stimulated with peptide 1 (K6F), recombinant Keratin 6 (RK6, Rec-K6) or scramble peptide (Sc) for 2-24 hr, and the expression levels of MMP-2, MMP-3, MCP-1, IL-6, IL-8 were measured by Western blot analysis. […] Then, gingiva fibroblast (GF) and gingival epithelial cell (GEC) were stimulated with peptide 1 (K6F) or scramble peptide (Sc), respectively, for 15 min-2 hr, and phosphorylation of p38 in GF, as well as expression of IκB-α and phosphorylation of p65 NFκB and activation of representative serine/threonine kinase in GEC were examined.

[6] = system: peripheral blood mononuclear leukocytes; experiment: FACS analysis of RANKL and CD3 in peripheral blood mononuclear leukocytes of injected rats; format: cell-based, rat; conditions: in vitro stimulation of cells of rats injected with FL6 or K6F
Protocol: as §1

[7] = system: Lymphocytes obtained from periodontitis patients and healthy subjects (T cell proliferation); experiment: Drug-induced lymphocyte stimulation test (DLST); format: cell-based, human; conditions: for T cell proliferation induction potency in DLST: periodontitis patients as compared to healthy subjects
Description: Lymphocytes obtained from periodontitis patients and healthy subjects were subjected to a drug-induced lymphocyte stimulation test (DLST) using full-length human Keratin 6 and peptide 1 (fragment thereof) (periodontitis patients: N=22, healthy subjects: N=5).

gingiva fibroblast (GF) = experiment: Binding of FITC-labeled peptide to various cells, confocal microscope; conditions: gingiva fibroblast compared to other cells
Description: Various cells were stimulated with FITC-labeled peptide 1 (K6F, P-1), observed under a confocal microscope, and the binding level to K6F was shown by percentage higher than that of the control cell (FIG. 14).

[8] = system: T cells obtained from peripheral blood of the periodontal disease patients; experiment: Differentiation of stimulated T cells into polynuclear giant cells, tissue staining; format: cell-based, human; conditions: stimulation
Description: T cells obtained from peripheral blood of the periodontal disease patients and healthy subject were stimulated with full-length human Keratin 6 (FL) or peptide 1 (K6F), and differentiation into polynuclear giant cells was observed by tissue staining.

RANKL in lymphocytes = experiment: RANKL expression in stimulated lymphocytes, Western blot with anti RANKL antibody; format: cell-based, human
Protocol: Blood samples were collected from progressive (untreated) periodontitis patients, periodontitis patients during treatment and periodontitis patients after treatment to obtain lymphocytes, stimulated with full-length human Keratin 6 (K6; 2 or 4 μg/ml) or peptide 1 (K6F; 60 or 30 μg/ml), expression of RANKL in lymphocytes was examined by Western blot analysis using anti RANKL antibody. […] Fluorescent staining was performed to examine induction of lymphoblast formation by the stimulation with full-length human Keratin 6 or peptide 1. As a result, it was correlated well with the expression of RANKL mRNA (FIG. 8C).

[9] = system: T cells obtained from peripheral blood of the periodontal disease patients; experiment: Pit formation assay on dentin section; format: cell-based, human; conditions: stimulation
[10] = system: MMP-2, MMP-3, MCP-1, IL-6, IL-8 in gingiva fibroblasts; experiment: Cytokine and chemokine expression in stimulated gingiva fibroblasts, Western blot; format: cell-based; conditions: stimulation 2-24 hr
Protocol: as §2

rats = experiment: Intragingival injection to the lower left jaw of rats; format: in vivo, rat; conditions: for tumentia of lower jaw lymph node (Lt): injected left side, intragingival injection; for alveolar bone destruction: lower jaw of injected rats
Protocol: as §1

[11] = in vitro stimulation of lymphocytes of injected rats
[12] = lymphocytes of rats injected with the substance
[13] = lymphocytes of healthy subject (Non-PD) and periodontitis patients after treatment (Maintenance Phase)
[14] = lymphocytes of untreated periodontitis patients and patients during treatment, K6 2 or 4 μg/ml, K6F 60 or 30 μg/ml

Molecule | Lymphoblast formation [1, 11] | Lymphoblast formation [1, 12] | phosphorylation (activation) of p38 MAPK ([2]; GF) | degradation of IκB and activation of p65 NFκB [2] | CD positive cells (T cells) that express RANKL [3] | expression of RANKL mRNA [4] | activation of representative serine/threonine kinase [5] | expression of RANKL and CD3 [6] | DLST positive samples (T cell proliferation induced) / samples tested ([7]; Healthy subject, N=5) | DLST positive samples (T cell proliferation induced) / samples tested ([7]; Periodontitis patients, N=22) | T cell proliferation induction potency in DLST [7] | binding level to cells, percentage higher than that of the control cell (gingiva fibroblast (GF)) | differentiation into polynuclear giant cells [8] | expression of RANKL in lymphocytes (RANKL in lymphocytes; [13]) | expression of RANKL in lymphocytes (RANKL in lymphocytes; [14]) | bone resorption pit formation [9] | expression levels of MMP-2, MMP-3, MCP-1, IL-6, IL-8 [10] | tumentia of lower jaw lymph node (Lt) (rats) | alveolar bone destruction (rats)
YEELQITAGRHGDDLRNTK (listed as Homo sapiens) [peptide 1] | further enhanced lymphoblast formation | Lymphoblast formation was observed | induced activation of p38 MAPK | did not induce degradation of IκB and activation of p65 NFκB | remarkably increased | tended to increase | induced activation of ERK and Akt | enhanced expression of RANKL and CD3 | 0/5 | 3/22 | remarkable T cell proliferation induction potency | far higher binding level | remarkable differentiation into polynuclear giant cells | not expressed | increased expression of RANKL | formation of a marked bone resorption pit | remarkably increased expression | tumentia of lower jaw lymph node | alveolar bone destruction was observed
B1 | further enhanced lymphoblast formation | Lymphoblast formation was observed |  |  | remarkably increased | tended to increase |  |  | 2/5 | 13/22 | remarkable T cell proliferation induction potency |  | remarkable differentiation into polynuclear giant cells | not expressed | increased expression of RANKL | formation of a marked bone resorption pit |  | tumentia of lower jaw lymph node | alveolar bone destruction was observed
